Reference: patent US6355799B1, “Substituted benzene compounds, process for their preparation, and herbicidal and defoliant compositions containing them” (ISK Americas Incorporated, priority 1997, dated 2002)

How the values were obtained:
Assay type in all cases: in vivo
[1] = test system: field corn (Zea mays L., var. Dekalb 535, CORN); assay: Post-emerge test, crop safety; conditions: post-emerge, 14 days after application, rating scale 0-100
Summary of the method: (§1)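 Sandy loam pots; pre-emerge: sown 1 d pre-spray, surface-watered after, then bottom-watered. Post-emerge: sown 8–21 d before, 2–3 leaf stage, + 0.25% v/v NIS, bottom-watered. Acetone, 187 l/ha track spray, 15–1000 g ai/ha. 0–100 injury score, day 14.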

[2] = test system: upland rice (Oryza sp., var. Tebonnet, RICE); assay: Post-emerge test, crop safety; conditions: post-emerge, 14 days after application, rating scale 0-100
Summary of the method: as §1

[3] = test system: green foxtail (Setaria viridis, SETVI); assay: Post-emerge test, greenhouse herbicide activity screening; conditions: post-emerge, 14 days after application, rating scale 0-100
Summary of the method: (§2)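 Visual ratings on a 0-100 scale (0 no damage, 100 all plants dead) were taken at 14 days after treatment. Rates of 15-1000 g ai/ha in acetone, 187 l/ha, were sprayed onto soil one day after planting (pre-emerge) or onto 2-3 leaf plants with 0.25% v/v surfactant (post-emerge).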

[4] = test system: common ragweed (Ambrosia artemisizfolia L., AMBEL); assay: as above; conditions: post-emerge, 14 days after application, rating scale 0-100
Summary of the method: as §2

[5] = test system: lambsquarters (Chenopodium album, CHEAL); assay: as above; conditions: post-emerge, 14 days after application, rating scale 0-100
Summary of the method: as §2

[6] = test system: redroot pigweed (Amaranthus retroflexus, AMARE); assay: as above; conditions: post-emerge, 14 days after application, rating scale 0-100
Summary of the method: as §2

[7] = test system: sicklepod (Cassia obtusifolia, CASOB); assay: as above; conditions: post-emerge, 14 days after application, rating scale 0-100
Summary of the method: as §2

[8] = test system: ivyleaf morningglory (Ipomoea hederacea, IPOHE); assay: as above; conditions: post-emerge, 14 days after application, rating scale 0-100
Summary of the method: as §2

[9] = test system: velvetleaf (Abutilon theophrasti, ABUTH); assay: as above; conditions: post-emerge, 14 days after application, rating scale 0-100
Summary of the method: as §2

[10] = test system: barnyardgrass (Echinochloa crus-galli, ECHCG); assay: as above; conditions: post-emerge, 14 days after application, rating scale 0-100
Summary of the method: as §2

[11] = test system: large crabgrass (Digitaria sanguinalis, DIGSA); assay: as above; conditions: post-emerge, 14 days after application, rating scale 0-100
Summary of the method: as §2

[12] = test system: johnsongrass (Sorghum halepense, SORHA); assay: as above; conditions: post-emerge, 14 days after application, rating scale 0-100
Summary of the method: as §2

[13] = test system: green foxtail (Setaria viridis, SETVI); assay: Pre-emerge test, greenhouse herbicide activity screening; conditions: rated 14 days after application, 0 = no damage, 100 = complete death
Summary of the method: as §1

[14] = test system: common ragweed (Ambrosia artemisizfolia L., AMBEL); assay: as above; conditions: rated 14 days after application, 0 = no damage, 100 = complete death
Summary of the method: as §1

[15] = test system: lambsquarters (Chenopodium album, CHEAL); assay: as above; conditions: rated 14 days after application, 0 = no damage, 100 = complete death
Summary of the method: as §1

[16] = test system: sicklepod (Cassia obtusifolia, CASOB); assay: as above; conditions: rated 14 days after application, 0 = no damage, 100 = complete death
Summary of the method: as §1

[17] = test system: ivyleaf morningglory (Ipomoea hederacea, IPOHE); assay: as above; conditions: rated 14 days after application, 0 = no damage, 100 = complete death
Summary of the method: as §1

[18] = test system: velvetleaf (Abutilon theophrasti, ABUTH); assay: as above; conditions: rated 14 days after application, 0 = no damage, 100 = complete death
Summary of the method: as §1

[19] = test system: barnyardgrass (Echinochloa crus-galli, ECHCG); assay: as above; conditions: rated 14 days after application, 0 = no damage, 100 = complete death
Summary of the method: as §1

[20] = test system: large crabgrass (Digitaria sanguinalis, DIGSA); assay: as above; conditions: rated 14 days after application, 0 = no damage, 100 = complete death
Summary of the method: as §1

[21] = test system: johnsongrass (Sorghum halepense, SORHA); assay: as above; conditions: rated 14 days after application, 0 = no damage, 100 = complete death
Summary of the method: as §1

[22] = test system: field corn (Zea mays L., var. Dekalb 535, CORN); assay: Pre-emerge test, crop safety; conditions: rated 14 days after application, 0 = no damage, 100 = complete death
Summary of the method: (§3)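 Applied at 15–1000 g ai/ha from acetone in 187 l/ha spray volume. Post-emergence applications included 0.25% v/v non-ionic surfactant and reached plants sown 8–21 days before. Pre-emergence applications were incorporated by surface watering. Efficacy or crop damage was rated on a 0–100 scale after 14 days.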

[23] = test system: upland rice (Oryza sp., var. Tebonnet, RICE); assay: Pre-emerge test, crop safety; conditions: rated 14 days after application, 0 = no damage, 100 = complete death
Summary of the method: as §3

[24] = test system: redroot pigweed (Amaranthus retroflexus, AMARE); assay: Pre-emerge test, greenhouse herbicide activity screening; conditions: rated 14 days after application, 0 = no damage, 100 = complete death
Summary of the method: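 Compounds in acetone were track-sprayed at 187 l/ha, 15–1000 g ai/ha, onto sandy loam pots. Pre-emerge seeds were sown one day before spraying, with surface watering afterwards. Post-emerge plants were at the 2–3 leaf stage and sprayed with 0.25% v/v non-ionic surfactant. Injury was rated 0–100 at 14 days.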

COc1c(Cl)cc(F)c(-n2c(=O)cc(C(F)(F)F)n(C)c2=O)c1NC(=O)c1ccc(CCl)cc1 [2-36]
phytotoxicity rating CORN ([1]; 63 g ai/ha): 10 | phytotoxicity rating CORN ([1]; 250 g ai/ha): 20 | phytotoxicity rating RICE ([2]; 63 g ai/ha): 25 | phytotoxicity rating RICE ([2]; 250 g ai/ha): 40 | phytotoxicity rating SETVI ([3]; 63 g ai/ha): 50 | phytotoxicity rating SETVI ([3]; 250 g ai/ha): 60 | phytotoxicity rating AMBEL ([4]; 63 g ai/ha): 80 | phytotoxicity rating AMBEL ([4]; 250 g ai/ha): 95 | phytotoxicity rating CHEAL ([5]; 63 g ai/ha): 95 | phytotoxicity rating CHEAL ([5]; 250 g ai/ha): 100 | phytotoxicity rating AMARE ([6]; 63 g ai/ha): 100 | phytotoxicity rating AMARE ([6]; 250 g ai/ha): 100 | phytotoxicity rating CASOB ([7]; 63 g ai/ha): 60 | phytotoxicity rating CASOB ([7]; 250 g ai/ha): 60 | phytotoxicity rating IPOHE ([8]; 63 g ai/ha): 100 | phytotoxicity rating IPOHE ([8]; 250 g ai/ha): 100 | phytotoxicity rating ABUTH ([9]; 63 g ai/ha): 100 | phytotoxicity rating ABUTH ([9]; 250 g ai/ha): 100 | phytotoxicity rating ECHCG ([10]; 63 g ai/ha): 10 | phytotoxicity rating ECHCG ([10]; 250 g ai/ha): 0 | phytotoxicity rating DIGSA ([11]; 63 g ai/ha): 20 | phytotoxicity rating DIGSA ([11]; 250 g ai/ha): 20 | phytotoxicity rating SORHA ([12]; 63 g ai/ha): 10 | phytotoxicity rating SORHA ([12]; 250 g ai/ha): 10 | Pre-emerge Herbicidal Activity, phytotoxicity rating (0-100), SETVI ([13]; 63 g ai/ha): 25 | Pre-emerge Herbicidal Activity, phytotoxicity rating (0-100), SETVI ([13]; 250 g ai/ha): 90 | Pre-emerge Herbicidal Activity, phytotoxicity rating (0-100), AMBEL ([14]; 63 g ai/ha): 0 | Pre-emerge Herbicidal Activity, phytotoxicity rating (0-100), AMBEL ([14]; 250 g ai/ha): 30 | Pre-emerge Herbicidal Activity, phytotoxicity rating (0-100), CHEAL ([15]; 63 g ai/ha): 90 | Pre-emerge Herbicidal Activity, phytotoxicity rating (0-100), CHEAL ([15]; 250 g ai/ha): 100 | Pre-emerge Herbicidal Activity, phytotoxicity rating (0-100), CASOB ([16]; 63 g ai/ha): 10 | Pre-emerge Herbicidal Activity, phytotoxicity rating (0-100), CASOB ([16]; 250 g ai/ha): 70 | Pre-emerge Herbicidal Activity, phytotoxicity rating (0-100), IPOHE ([17]; 63 g ai/ha): 0 | Pre-emerge Herbicidal Activity, phytotoxicity rating (0-100), IPOHE ([17]; 250 g ai/ha): 60 | Pre-emerge Herbicidal Activity, phytotoxicity rating (0-100), ABUTH ([18]; 63 g ai/ha): 100 | Pre-emerge Herbicidal Activity, phytotoxicity rating (0-100), ABUTH ([18]; 250 g ai/ha): 100 | Pre-emerge Herbicidal Activity, phytotoxicity rating (0-100), ECHCG ([19]; 63 g ai/ha): 0 | Pre-emerge Herbicidal Activity, phytotoxicity rating (0-100), ECHCG ([19]; 250 g ai/ha): 10 | Pre-emerge Herbicidal Activity, phytotoxicity rating (0-100), DIGSA ([20]; 63 g ai/ha): 0 | Pre-emerge Herbicidal Activity, phytotoxicity rating (0-100), DIGSA ([20]; 250 g ai/ha): 30 | Pre-emerge Herbicidal Activity, phytotoxicity rating (0-100), SORHA ([21]; 63 g ai/ha): 0 | Pre-emerge Herbicidal Activity, phytotoxicity rating (0-100), SORHA ([21]; 250 g ai/ha): 20 | Pre-emerge phytotoxicity rating (0-100), crop damage, CORN ([22]; 63 g ai/ha): 0 | Pre-emerge phytotoxicity rating (0-100), crop damage, CORN ([22]; 250 g ai/ha): 0 | Pre-emerge phytotoxicity rating (0-100), crop damage, RICE ([23]; 63 g ai/ha): 0 | Pre-emerge phytotoxicity rating (0-100), crop damage, RICE ([23]; 250 g ai/ha): 40 | Pre-emerge Herbicidal Activity, phytotoxicity rating (0-100), AMARE ([24]; 63 g ai/ha): 100 | Pre-emerge Herbicidal Activity, phytotoxicity rating (0-100), AMARE ([24]; 250 g ai/ha): 100
